# Results reported in ChEMBL document CHEMBL1201862, “PubChem BioAssay data set” (2004).
#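 Interpolation was linear, between the two tested concentrations surrounding the appropriate level; five concentrations were tested over 48 hours in 96-well plates. Abbreviation: GI50, concentration required for 50% inhibition of growth.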 Calls of active or inactive are those of the source. No stated cut-off is given here; in the data, active = GI50 up to about 1.1 µM and inactive = higher.
# How the values were obtained:
# Test in all cases: NCI-60 cell line screen, 48 h
# TK-10 = system: TK-10
# Malme-3M = system: Malme-3M
# U-251 = system: U-251
# HCT-116 = system: HCT-116
# HCT-15 = system: HCT-15
# SK-MEL-2 = system: SK-MEL-2
# MOLT-4 = system: MOLT-4
# UACC-62 = system: UACC-62
# HOP-62 = system: HOP-62
# OVCAR-5 = system: OVCAR-5
# A498 = system: A498
# UACC-257 = system: UACC-257
# RPMI-8226 = system: RPMI-8226
# HL-60 = system: HL-60
# SK-MEL-28 = system: SK-MEL-28
# EKVX = system: EKVX
# SK-MEL-5 = system: SK-MEL-5
# M14 = system: M14
# SNB-19 = system: SNB-19
# CAKI-1 = system: CAKI-1
Compound,GI50 (TK-10),GI50 (Malme-3M),GI50 (U-251),GI50 (HCT-116),GI50 (HCT-15) [µM],GI50 (SK-MEL-2),GI50 (MOLT-4),GI50 (UACC-62),GI50 (HOP-62),GI50 (OVCAR-5),GI50 (A498),GI50 (UACC-257),GI50 (RPMI-8226),GI50 (HL-60),GI50 (SK-MEL-28),GI50 (EKVX),GI50 (SK-MEL-5),GI50 (M14),GI50 (SNB-19),GI50 (CAKI-1)
Nc1nc(O)c2[nH]cnc2[n+]1[O-],53.3 µM (inactive),> 100 µM (inactive),> 100 µM (inactive),> 100 µM (inactive),> 100,> 100 µM (inactive),> 100 µM (inactive),> 100 µM (inactive),> 100 µM (inactive),> 100 µM (inactive),> 100 µM (inactive),> 100 µM (inactive),> 100 µM (inactive),> 100 µM (inactive),> 100 µM (inactive),> 100 µM (inactive),> 100 µM (inactive),> 100 µM (inactive),> 100 µM (inactive),
COc1cccc(C2c3cc4c(cc3OC(N3CCOCC3)C2C)OCO4)c1 (stereo not drawn),,10.5 µM (inactive),,13.2 µM (inactive),6.31,12.2 µM (inactive),2.7 µM (inactive),8.47 µM (inactive),16.2 µM (inactive),27 µM (inactive),,14.8 µM (inactive),> 100 µM (inactive),,,26.7 µM (inactive),4.37 µM (inactive),7.05 µM (inactive),20.5 µM (inactive),
COc1ccc(-c2cs/c(=N\c3ccccc3)n2CCCN(C)C)cc1,14.2 µM (inactive),,43.4 µM (inactive),,24.8,19.8 µM (inactive),16.5 µM (inactive),15.1 µM (inactive),13.6 µM (inactive),14.8 µM (inactive),22 µM (inactive),18.9 µM (inactive),24.5 µM (inactive),5.58 µM (inactive),18.2 µM (inactive),,,10.7 µM (inactive),19.2 µM (inactive),71.9 µM (inactive)
Cc1cc(C)nc(NS(=O)(=O)c2ccc(NC(=O)c3cccc4c(Nc5ccc(S(=O)(=O)Nc6cc(C)on6)cc5)c5ccccc5nc34)cc2)n1,34.4 µM (inactive),18 µM (inactive),18.4 µM (inactive),25.9 µM (inactive),,19.5 µM (inactive),25.4 µM (inactive),20.3 µM (inactive),19.1 µM (inactive),16.7 µM (inactive),23.8 µM (inactive),22.2 µM (inactive),,26.5 µM (inactive),20.7 µM (inactive),24.9 µM (inactive),,22.7 µM (inactive),15.7 µM (inactive),
O=C(Nc1ccc(Cl)c(Cl)c1)C(=O)C(C(=O)c1ccccc1F)C1OC(=O)c2ccccc21 (stereo not drawn),38.8 µM (inactive),,12.7 µM (inactive),16.8 µM (inactive),13.7,12.3 µM (inactive),29.6 µM (inactive),14.8 µM (inactive),23.4 µM (inactive),49.1 µM (inactive),37.8 µM (inactive),40.8 µM (inactive),18.2 µM (inactive),14.1 µM (inactive),25.3 µM (inactive),22.4 µM (inactive),15.9 µM (inactive),16.4 µM (inactive),17.5 µM (inactive),35.2 µM (inactive)
CC1(Br)S(=O)(=O)OCCOS1(=O)=O,> 100 µM (inactive),> 100 µM (inactive),> 100 µM (inactive),> 100 µM (inactive),> 100,> 100 µM (inactive),> 100 µM (inactive),> 100 µM (inactive),> 100 µM (inactive),> 100 µM (inactive),> 100 µM (inactive),> 100 µM (inactive),> 100 µM (inactive),> 100 µM (inactive),> 100 µM (inactive),> 100 µM (inactive),> 100 µM (inactive),> 100 µM (inactive),> 100 µM (inactive),
COc1ccc2c(c1)OC(c1ccccc1O)CC2=O (stereo not drawn),> 100 µM (inactive),47.3 µM (inactive),44.5 µM (inactive),29.5 µM (inactive),27.2,26.6 µM (inactive),26.1 µM (inactive),,41.4 µM (inactive),> 100 µM (inactive),53.1 µM (inactive),39.5 µM (inactive),23.9 µM (inactive),,48.2 µM (inactive),96.8 µM (inactive),40 µM (inactive),39.9 µM (inactive),> 100 µM (inactive),51.5 µM (inactive)
COc1ccc(NC(=O)C(=O)NNC(=O)c2sc(NNC(C)=O)nc2C)c([N+](=O)[O-])c1,> 100 µM (inactive),> 100 µM (inactive),> 100 µM (inactive),> 100 µM (inactive),91.6,> 100 µM (inactive),36 µM (inactive),82.6 µM (inactive),> 100 µM (inactive),> 100 µM (inactive),33.3 µM (inactive),81.7 µM (inactive),65.9 µM (inactive),42.7 µM (inactive),> 100 µM (inactive),> 100 µM (inactive),> 100 µM (inactive),> 100 µM (inactive),> 100 µM (inactive),
CCOC(=O)c1sc2nc(SC)nc(N3CCCCC3)c2c1N,> 100 µM (inactive),> 100 µM (inactive),> 100 µM (inactive),> 100 µM (inactive),> 100,> 100 µM (inactive),> 100 µM (inactive),> 100 µM (inactive),> 100 µM (inactive),> 100 µM (inactive),> 100 µM (inactive),5.07 µM (inactive),> 100 µM (inactive),,> 100 µM (inactive),,> 100 µM (inactive),> 100 µM (inactive),> 100 µM (inactive),> 100 µM (inactive)
CC1CC(c2ccccc2)=Nc2ccccc2S1 (stereo not drawn),> 100 µM (inactive),,44.1 µM (inactive),> 100 µM (inactive),> 100,> 100 µM (inactive),77.8 µM (inactive),> 100 µM (inactive),> 100 µM (inactive),> 100 µM (inactive),> 100 µM (inactive),> 100 µM (inactive),68.5 µM (inactive),58.9 µM (inactive),> 100 µM (inactive),72.8 µM (inactive),> 100 µM (inactive),> 100 µM (inactive),> 100 µM (inactive),> 100 µM (inactive)
CCc1ncc(C(C)(O)c2ccccc2)n1Cc1ccccc1 (stereo not drawn),33.5 µM (inactive),41 µM (inactive),34.6 µM (inactive),0.124 µM (active),41.5,70.8 µM (inactive),22.5 µM (inactive),20.9 µM (inactive),< 0.01 µM (active),98.6 µM (inactive),,29.4 µM (inactive),32.3 µM (inactive),,33.4 µM (inactive),56.2 µM (inactive),17.8 µM (inactive),0.294 µM (active),42.4 µM (inactive),35.4 µM (inactive)
Cn1c(=O)c(Cl)c(N=[N+]=[N-])c2ccccc21,> 100 µM (inactive),68.9 µM (inactive),> 100 µM (inactive),93.8 µM (inactive),> 100,> 100 µM (inactive),23.3 µM (inactive),68.1 µM (inactive),> 100 µM (inactive),> 100 µM (inactive),> 100 µM (inactive),> 100 µM (inactive),,,> 100 µM (inactive),22.1 µM (inactive),65.5 µM (inactive),,> 100 µM (inactive),78.7 µM (inactive)
CCOC(=O)CCC1(C(=O)OCC)CCCCC1=O (stereo not drawn),> 100 µM (inactive),> 100 µM (inactive),> 100 µM (inactive),> 100 µM (inactive),,> 100 µM (inactive),> 100 µM (inactive),,> 100 µM (inactive),> 100 µM (inactive),> 100 µM (inactive),> 100 µM (inactive),> 100 µM (inactive),> 100 µM (inactive),> 100 µM (inactive),> 100 µM (inactive),> 100 µM (inactive),,> 100 µM (inactive),
CCOC(=O)Cc1cc(OC)c(OC)cc1/C(Cl)=C(\CO)c1ccc(OC)c(OC)c1,> 100 µM (inactive),> 100 µM (inactive),64 µM (inactive),> 100 µM (inactive),> 100,,> 100 µM (inactive),> 100 µM (inactive),,,,> 100 µM (inactive),37.5 µM (inactive),> 100 µM (inactive),78 µM (inactive),> 100 µM (inactive),30.7 µM (inactive),> 100 µM (inactive),50.2 µM (inactive),> 100 µM (inactive)
Nc1ncnc2c1ncn2C1C(O)C=C(CO)C1O (stereo not drawn),,> 625 µM (inactive),,> 625 µM (inactive),> 625,> 625 µM (inactive),,> 625 µM (inactive),> 625 µM (inactive),,,,> 625 µM (inactive),467 µM (inactive),,,> 625 µM (inactive),,> 625 µM (inactive),> 625 µM (inactive)
O=c1c2cc(I)ccc2nc(-c2cccs2)n1O,24.6 µM (inactive),,30.1 µM (inactive),38.8 µM (inactive),33.9,48.6 µM (inactive),34.8 µM (inactive),90.6 µM (inactive),48.9 µM (inactive),44.8 µM (inactive),,59 µM (inactive),27 µM (inactive),34.3 µM (inactive),65.8 µM (inactive),26.4 µM (inactive),45.1 µM (inactive),64.3 µM (inactive),22.2 µM (inactive),28.8 µM (inactive)
